This note sets out measurements from patent publication US20240058464A1 (Fortis Therapeutics, Inc., priority 2021, published 2024).

Assay [1] relates to CD46 expression. Nature of the assay: CD46 expression by RNA-sequencing in unpaired pre-treatment and post-treatment tumor biopsies. Type of assay: in vivo, human. The note with it: for CD46 expression Post: post-treatment biopsies.
Assay [2] deals with CD46 expression. Nature of the assay: CD46 expression by RNA-sequencing in paired tumor biopsies before and after therapy.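 As to all read-outs here: FFPE human tumor biopsies, exome-capture RNA-seq, reads aligned to GRCh37, counts normalized for GC content, length and depth, summed per gene, log2-transformed, samples paired before versus after therapy.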 The note with it: paired biopsies; for CD46 expression, Post-Treatment Biopsy / CD46 expression, Pre-Treatment Biopsy: RNA-seq log2-transformed counts.
Procedure: Gene expression was determined by RNA-sequencing from formalin-fixed, paraffin-embedded (FFPE) tumor samples using an exome capture-based protocol. Briefly, total nucleic acid was extracted from FFPE solid tumor samples. The RNA sample was treated with DNAse and reverse transcribed. cDNA was captured with a custom probe set targeting the human exome. A library was prepared from the captured cDNA and sequenced on the Illumina platform. Sequence read were aligned to GRCh37 using Kallisto and normalized to quantify gene expression. Specifically, transcript counts were corrected for GC content and length using quantile normalization and adjusted for sequencing depth via a size factor method. Normalized counts in protein coding transcripts covered by the exome panel were then summed to obtain gene-level counts. Subsequent expression analyses were performed on log2-transformed counts.
Where [3] appears, read: Colorectal Cancer, Post minus Pre, unpaired biopsies, log2-transformed counts.
Where [4] appears, read: Colorectal Cancer, post- vs pre-treatment unpaired biopsies.
Where [5] appears, read: Colorectal Cancer, unpaired, RNA-seq log2-transformed normalized counts.
[6] abbreviates: Esophageal Cancer, Post minus Pre, unpaired biopsies, log2-transformed counts.
Where [7] appears, read: Esophageal Cancer, post- vs pre-treatment unpaired biopsies.
[8] abbreviates: Esophageal Cancer, unpaired, RNA-seq log2-transformed normalized counts.
Setting [9] is: Gastric Cancer, Post minus Pre, unpaired biopsies, log2-transformed counts.
Setting [10] is: Gastric Cancer, post- vs pre-treatment unpaired biopsies.
Setting [11] is: Gastric Cancer, unpaired, RNA-seq log2-transformed normalized counts.
The mark [12] stands for this setting: Non-Small Cell Lung Cancer, Post minus Pre, unpaired biopsies, log2-transformed counts.
The mark [13] stands for this setting: Non-Small Cell Lung Cancer, post- vs pre-treatment unpaired biopsies.
Setting [14] is: Non-Small Cell Lung Cancer, unpaired, RNA-seq log2-transformed normalized counts.
[15] abbreviates: Breast Cancer, Post minus Pre, unpaired biopsies, log2-transformed counts.
[16] abbreviates: Breast Cancer, post- vs pre-treatment unpaired biopsies.
Setting [17] is: Breast Cancer, unpaired, RNA-seq log2-transformed normalized counts.

As to `O=C1[O][Pt]2([NH][C@@H]3CCCC[C@H]3[NH]2)[O]C1=O` [oxaliplatin], the CD46 expression diff in assay [1] (Biliary Cancer, Post minus Pre, unpaired biopsies, log2-transformed counts) is 0.05; in assay [1] (setting [3]), 0.04; in assay [1] (setting [6]) it was −0.06; in assay [1] (setting [9]) it was −0.12; in assay [1] (Pancreatic Cancer, Post minus Pre, unpaired biopsies, log2-transformed counts) it was −0.13. The “CD46 expression Percentage change” value in assay [1] (Biliary Cancer, post- vs pre-treatment unpaired biopsies) was 0.9%; in assay [1] (setting [4]) it was 0.6%; in assay [1] (setting [7]) it was −1.0%; in assay [1] (setting [10]), −2.1%; in assay [1] (Pancreatic Cancer, post- vs pre-treatment unpaired biopsies), −2.2%. For the same molecule, the “CD46 expression Post” value is recorded as 5.91 in assay [1] (Biliary Cancer, unpaired, RNA-seq log2-transformed normalized counts); 6.42 in assay [1] (setting [5]); 5.85 in assay [1] (setting [8]); 5.66 in assay [1] (setting [11]). Further, the “CD46 expression diff (post minus pre)” value in assay [2] (Colorectal Cancer) was −0.04; in assay [2] (Esophageal Cancer), −0.17; in assay [2] (Gastric Cancer) it was 0.05; in assay [2] (Pancreatic Cancer) it was 0.06. For the same molecule, the “Percent Change in CD46 expression” value in assay [2] (Colorectal Cancer) is reported as −0.6%; in assay [2] (Esophageal Cancer), −2.9%; in assay [2] (Gastric Cancer), 0.8%; in assay [2] (Pancreatic Cancer) it was 1.0%. For the same molecule, the “CD46 expression, Post-Treatment Biopsy” value in assay [2] (Colorectal Cancer) turned out to be 6.26; in assay [2] (Esophageal Cancer), 5.74; in assay [2] (Gastric Cancer), 5.69; in assay [2] (Pancreatic Cancer) it was 5.93. In addition, the “CD46 expression, Pre-Treatment Biopsy” value in assay [2] (Colorectal Cancer) is on record as 6.30; in assay [2] (Esophageal Cancer), 5.91; in assay [2] (Gastric Cancer), 5.64; in assay [2] (Pancreatic Cancer), 5.87.
For the molecule `CC(=O)O[C@H]1C(=O)[C@@]2(C)[C@H]([C@H](OC(=O)c3ccccc3)[C@]3(O)C[C@H](OC(=O)[C@H](O)[C@@H](NC(=O)c4ccccc4)c4ccccc4)C(C)=C1C3(C)C)[C@]1(OC(C)=O)CO[C@@H]1C[C@@H]2O` [paclitaxel], the CD46 expression diff is recorded as −0.15 in assay [1] (Breast Cancer, post minus pre, unpaired biopsies); 0.03 in assay [1] (Endometrial Cancer, Post minus Pre, unpaired biopsies, log2-transformed counts); −0.13 in assay [1] (setting [6]); 0.04 in assay [1] (setting [9]); 0.13 in assay [1] (Head and Neck Squamous Cell Carcinoma, Post minus Pre, unpaired biopsies, log2-transformed counts); −0.07 in assay [1] (setting [12]). Moreover, the CD46 expression diff in assay [1] (Ovarian Cancer, Post minus Pre, unpaired biopsies, log2-transformed counts) was −0.01; in assay [1] (Sarcoma, Post minus Pre, unpaired biopsies, log2-transformed counts) it was −0.09. Further, the “CD46 expression Percentage change” value is on record as −2.4% in assay [1] (Breast Cancer, post vs pre, unpaired biopsies); 0.6% in assay [1] (Endometrial Cancer, post- vs pre-treatment unpaired biopsies); −2.1% in assay [1] (setting [7]); 0.7% in assay [1] (setting [10]); 2.4% in assay [1] (Head and Neck Squamous Cell Carcinoma, post- vs pre-treatment unpaired biopsies); −1.1% in assay [1] (setting [13]). The “CD46 expression Percentage change” value in assay [1] (Ovarian Cancer, post- vs pre-treatment unpaired biopsies) is −0.1%; in assay [1] (Sarcoma, post- vs pre-treatment unpaired biopsies) it was −1.7%. In addition, the “CD46 expression Post” value in assay [1] (Breast Cancer, log2-transformed RNA-seq counts) is given as 6.04; in assay [1] (Endometrial Cancer, unpaired, RNA-seq log2-transformed normalized counts), 5.85; in assay [1] (setting [8]), 5.79; in assay [1] (setting [11]), 5.82; in assay [1] (Head and Neck Squamous Cell Carcinoma, unpaired, RNA-seq log2-transformed normalized counts), 5.68; in assay [1] (setting [14]), 6.00. The “CD46 expression Post” value in assay [1] (Ovarian Cancer, unpaired, RNA-seq log2-transformed normalized counts) is 5.73; in assay [1] (Sarcoma, unpaired, RNA-seq log2-transformed normalized counts), 4.96. Moreover, the “CD46 expression diff (post minus pre)” value in assay [2] (Breast Cancer) is −0.09; in assay [2] (Endometrial Cancer), 0.19; in assay [2] (Esophageal Cancer) it was 0.05; in assay [2] (Non-Small Cell Lung Cancer) it was −0.23; in assay [2] (Ovarian Cancer), −0.04. Further, the “Percent Change in CD46 expression” value in assay [2] (Breast Cancer) is −1.4%; in assay [2] (Endometrial Cancer), 3.2%; in assay [2] (Esophageal Cancer), 0.8%; in assay [2] (Non-Small Cell Lung Cancer), −3.7%; in assay [2] (Ovarian Cancer), −0.8%. Besides, the “CD46 expression, Post-Treatment Biopsy” value amounted to 6.12 in assay [2] (Breast Cancer); 6.01 in assay [2] (Endometrial Cancer); 6.02 in assay [2] (Esophageal Cancer); 5.89 in assay [2] (Non-Small Cell Lung Cancer); 5.67 in assay [2] (Ovarian Cancer).
Consider `CC(=O)c1c(C)c2cnc(Nc3ccc(N4CCNCC4)cn3)nc2n(C2CCCC2)c1=O` [palbociclib], for which, in assay [1] (setting [15]), the CD46 expression diff is reported as 0.01. For the same molecule, in assay [1] (setting [16]), the “CD46 expression Percentage change” value stood at 0.2%. Also, in assay [1] (setting [17]), the “CD46 expression Post” value came to 6.42. Besides, in assay [2] (Breast Cancer), the “CD46 expression diff (post minus pre)” value is given as −0.17; the “Percent Change in CD46 expression” value was −2.7%; the “CD46 expression, Post-Treatment Biopsy” value was determined as 6.34.
Regarding `Nc1nc2[nH]cc(CCc3ccc(C(=O)N[C@@H](CCC(=O)O)C(=O)O)cc3)c2c(=O)[nH]1` [pemetrexed], the CD46 expression diff in assay [1] (setting [12]) is on record as −0.11. Besides, in assay [1] (setting [13]), the “CD46 expression Percentage change” value is −1.8%. The “CD46 expression Post” value in assay [1] (setting [14]) was 6.27. Moreover, in assay [2] (Non-Small Cell Lung Cancer), the “CD46 expression diff (post minus pre)” value is listed as −0.20; the “Percent Change in CD46 expression” value was −3.1%; the “CD46 expression, Post-Treatment Biopsy” value stood at 6.22.
Turning to `C[C@]12C=CC(=O)C=C1CC[C@@H]1[C@@H]2C(=O)C[C@@]2(C)[C@H]1CC[C@]2(O)C(=O)CO` [prednisone], the CD46 expression diff in assay [1] (setting [12]) came out at 0.02. Besides, in assay [1] (setting [13]), the “CD46 expression Percentage change” value came to 0.3%. The CD46 expression diff in assay [1] (Prostate Cancer, Post minus Pre, unpaired biopsies, log2-transformed counts) is given as −0.10. Moreover, in assay [1] (Prostate Cancer, post- vs pre-treatment unpaired biopsies), the “CD46 expression Percentage change” value was −1.7%. For the same molecule, in assay [1] (Prostate Cancer, unpaired, RNA-seq log2-transformed normalized counts), the “CD46 expression Post” value is recorded as 6.08. In assay [2] (Prostate Cancer), the “CD46 expression diff (post minus pre)” value amounted to 0.13; the “Percent Change in CD46 expression” value was found to be 2.3%; the “CD46 expression, Post-Treatment Biopsy” value came out at 5.85.
As to `CNC(=O)c1cc(Oc2ccc(NC(=O)Nc3ccc(Cl)c(C(F)(F)F)c3)c(F)c2)ccn1` [regorafenib], the CD46 expression diff in assay [1] (setting [3]) is 0.19. Also, the “CD46 expression Percentage change” value in assay [1] (setting [4]) came to 2.9%. Besides, in assay [1] (setting [5]), the “CD46 expression Post” value came to 6.63. In assay [2] (Colorectal Cancer), the “CD46 expression diff (post minus pre)” value was determined as 0.25; the “Percent Change in CD46 expression” value is reported as 4.0%; the “CD46 expression, Post-Treatment Biopsy” value is listed as 6.49.
`CC/C(=C(\c1ccccc1)c1ccc(OCCN(C)C)cc1)c1ccccc1` [tamoxifen]: the CD46 expression diff in assay [1] (setting [15]) worked out at 0.11. Further, in assay [1] (setting [16]), the “CD46 expression Percentage change” value came out at 1.8%. Further, the “CD46 expression Post” value in assay [1] (setting [17]) stood at 6.38. Besides, in assay [2] (Breast Cancer), the “CD46 expression diff (post minus pre)” value was 0.11; the “Percent Change in CD46 expression” value is 1.7%; the “CD46 expression, Post-Treatment Biopsy” value turned out to be 6.32.
Regarding `Cn1nnc2c(C(N)=O)ncn2c1=O` [temozolomide], the CD46 expression diff in assay [1] (Endocrine Tumor, Post minus Pre, unpaired biopsies, log2-transformed counts) is recorded as −0.04; in assay [1] (Glioblastoma, Post minus Pre, unpaired biopsies, log2-transformed counts), 0.08. In addition, the “CD46 expression Percentage change” value is −0.8% in assay [1] (Endocrine Tumor, post- vs pre-treatment unpaired biopsies) and 1.6% in assay [1] (Glioblastoma, post- vs pre-treatment unpaired biopsies). The “CD46 expression Post” value in assay [1] (Endocrine Tumor, unpaired, RNA-seq log2-transformed normalized counts) is on record as 5.52; in assay [1] (Glioblastoma, unpaired, RNA-seq log2-transformed normalized counts), 4.85. The “CD46 expression diff (post minus pre)” value in assay [2] (Glioblastoma) amounted to 0.04. The “Percent Change in CD46 expression” value in assay [2] (Glioblastoma) is 0.8%. For the same molecule, the “CD46 expression, Post-Treatment Biopsy” value in assay [2] (Glioblastoma) worked out at 4.80.
atezolizumab: the CD46 expression diff in assay [1] (setting [15]) is listed as 0.07; in assay [1] (setting [12]), 0.00. For the same molecule, the “CD46 expression Percentage change” value in assay [1] (setting [16]) was 1.3%; in assay [1] (setting [13]), −0.1%. The “CD46 expression Post” value in assay [1] (setting [17]) was determined as 6.00; in assay [1] (setting [14]) it was 6.04. In addition, the “CD46 expression diff (post minus pre)” value in assay [2] (Breast Cancer) is reported as −0.14. Also, in assay [2] (Breast Cancer), the “Percent Change in CD46 expression” value was −2.4%. Besides, the “CD46 expression, Post-Treatment Biopsy” value in assay [2] (Breast Cancer) is on record as 5.99. The “CD46 expression, Pre-Treatment Biopsy” value in assay [2] (Breast Cancer) is 6.14.
